48 compounds from patent publication US8338597B2, “Pyridones useful as inhibitors of kinases” (Vertex Pharmaceuticals Incorporated, priority 2004, dated 2012) can be followed below.

For experiment [1], the target named is T1, Rlk (Homo sapiens, UniProt P42681).
T1 sequence (P42681 1-527): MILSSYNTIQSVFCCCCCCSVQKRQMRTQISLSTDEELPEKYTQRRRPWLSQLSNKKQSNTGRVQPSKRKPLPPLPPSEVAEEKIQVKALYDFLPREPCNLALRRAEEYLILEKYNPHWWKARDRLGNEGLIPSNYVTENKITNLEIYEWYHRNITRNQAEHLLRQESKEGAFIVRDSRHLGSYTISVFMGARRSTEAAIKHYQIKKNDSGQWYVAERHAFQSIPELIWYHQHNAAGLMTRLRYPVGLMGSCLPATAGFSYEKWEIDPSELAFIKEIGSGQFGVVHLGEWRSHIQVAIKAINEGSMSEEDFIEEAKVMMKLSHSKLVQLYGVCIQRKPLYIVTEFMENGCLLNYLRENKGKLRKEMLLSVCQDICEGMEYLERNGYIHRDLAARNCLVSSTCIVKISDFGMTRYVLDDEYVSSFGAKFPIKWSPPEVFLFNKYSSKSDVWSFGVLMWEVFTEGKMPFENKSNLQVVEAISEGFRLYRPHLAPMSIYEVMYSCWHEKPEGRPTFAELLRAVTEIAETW
Briefly: RLK inhibition assay, standard coupled enzyme assay. In kind it is biochemical. To be noted: 100 μM ATP, 40 nM Rlk, 30° C. The method, then: Compounds were screened for their ability to inhibit Rlk using a standard coupled enzyme assay (Fox et al., Protein Sci., (1998) 7, 2249). Assays were carried out in a mixture of 20 mM MOPS (pH 7.0), 10 mM MgCl2, 0.1% BSA and 1 mM DTT. Final substrate concentrations in the assay were 100 μM ATP (Sigma Chemicals) and 10 μM peptide (Poly Glu:Tyr 4:1). Assays were carried out at 30° C. and in the presence of 40 nM Rlk. Final concentrations of the components of the coupled enzyme system were 2.5 mM phosphoenolpyruvate, 300 μM NADH, 30 μg/ml pyruvate kinase and 10 μg/ml lactate dehydrogenase.
An assay stock buffer solution was prepared containing all of the reagents listed above, with the exception of ATP and the test compound of interest. 60 μl of the stock solution was placed in a 96 well plate followed by addition of […] of DMSO stock containing serial dilutions of the test compound (typically starting from a final concentration of 7.5 μM). The plate was preincubated for 10 minutes at 30° C. and the reaction initiated by addition of 5 μl of ATP. Initial reaction rates were determined with a Molecular Devices SpectraMax Plus plate reader over a 10 minute time course. IC50 and Ki data were calculated from non-linear regression analysis using the Prism software package (GraphPad Prism version 3.0cx for Macintosh, GraphPad Software, San Diego Calif., USA).

For experiment [2], the target named is T2, Itk (Homo sapiens, UniProt Q08881).
T2 sequence (Q08881 1-620): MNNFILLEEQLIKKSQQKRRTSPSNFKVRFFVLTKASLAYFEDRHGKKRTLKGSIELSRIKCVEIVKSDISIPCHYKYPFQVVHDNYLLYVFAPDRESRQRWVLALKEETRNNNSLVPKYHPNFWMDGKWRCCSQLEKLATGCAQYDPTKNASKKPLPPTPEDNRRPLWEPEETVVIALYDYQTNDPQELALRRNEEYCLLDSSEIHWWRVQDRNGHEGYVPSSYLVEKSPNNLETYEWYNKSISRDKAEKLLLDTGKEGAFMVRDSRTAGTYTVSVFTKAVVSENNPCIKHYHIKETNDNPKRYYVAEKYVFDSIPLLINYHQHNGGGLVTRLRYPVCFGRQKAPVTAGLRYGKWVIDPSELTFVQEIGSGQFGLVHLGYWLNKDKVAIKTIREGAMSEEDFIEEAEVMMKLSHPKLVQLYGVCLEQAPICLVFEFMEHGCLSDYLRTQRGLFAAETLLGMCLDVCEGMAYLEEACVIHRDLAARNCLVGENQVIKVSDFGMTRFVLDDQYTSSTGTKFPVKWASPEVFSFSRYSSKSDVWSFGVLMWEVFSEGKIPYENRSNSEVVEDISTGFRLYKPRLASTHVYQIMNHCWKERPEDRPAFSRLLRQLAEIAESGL
The experiment is described as follows: ITK inhibition assay, radioactive-phosphate incorporation. Particulars: [γ-33P]ATP, SAM68 peptide, 25° C. In kind it is biochemical. The method, then:
Assays were carried out in a mixture of 20 mM MOPS (pH 7.0), 10 mM MgCl2, 0.1% BSA and 1 mM DTT. […] Assays were carried out at 25° C. in the presence of 50 nM Itk. An assay stock buffer solution was prepared containing all of the reagents listed above, with the exception of ATP and the test compound of interest.
The reaction was stopped after 10 minutes by the addition of […] 0.2M phosphoric acid+0.01% TWEEN 20. A multiscreen phosphocellulose filter 96-well plate (Millipore, Cat no. MAPHN0B50) was pretreated with 100 μL 0.2M phosphoric acid+0.01% TWEEN 20 prior to the addition of […] of the stopped assay mixture. The plate was washed with 4×200 μL 0.2M phosphoric acid+0.01% TWEEN 20.
Ki(app) data were calculated from non-linear regression analysis of the initial rate data using the Prism software package (GraphPad Prism version 3.0cx for Macintosh, GraphPad Software, San Diego Calif., USA).

One may read the Ki as the equilibrium dissociation constant of an inhibitor or competing ligand from its target. Turning to `O=C(Nc1cc(-c2ccncc2)c[nH]c1=O)c1ccc(N2CCNCC2)cc1` [Compound I-71], the Ki in experiment [1] was more than 1000 nM; in experiment [2], less than 100 nM.
On to `CCN(CC)CCN1CCN(c2ccc(C(=O)Nc3cc(-c4ccncc4)c[nH]c3=O)cc2)CC1` [Compound I-74], for which the Ki in experiment [1] is more than 1000 nM; in experiment [2], less than 100 nM.
The like results for `CNc1nccc(-c2c[nH]c(=O)c(NC(=O)c3ccc(C(C)(C)C)cc3)c2)n1` [II-14] were, in that order, less than 1000 nM and less than 100 nM.
The like results for `Cn1cc(-c2c[nH]c(=O)c(NC(=O)c3ccc(C(C)(C)C)cc3)c2)cn1` [II-15] were, in that order, more than 1000 nM and 100 to 1000 nM.
The corresponding values for `CNc1cc(-c2c[nH]c(=O)c(NC(=O)c3ccc(C(C)(C)C)cc3)c2)ncn1` [II-17] are more than 1000 nM and less than 100 nM.
In the case of `CC(C)(C)c1ccc(C(=O)Nc2cc(-c3ccnc(NC4CCNCC4)n3)c[nH]c2=O)cc1` [II-28], the figures for the Ki in experiment [1] and in experiment [2] were less than 1000 nM and less than 100 nM, respectively.
The like results for `CC(C)(C)c1ccc(C(=O)Nc2cc(-c3ccnc(NC4CCCNC4)n3)c[nH]c2=O)cc1` (centres unmarked) [II-29] were, in that order, less than 1000 nM and less than 100 nM.
The corresponding values for `CC(C)(C)c1ccc(C(=O)Nc2cc(-c3ccnc(NC4CCNC4)n3)c[nH]c2=O)cc1` (centres unmarked) [II-30] are less than 1000 nM and less than 100 nM.
In experiment [1], `CNc1cc(-c2c[nH]c(=O)c(NC(=O)c3ccc(N4CCCCC4)cc3)c2)ncn1` [II-46] displayed a Ki of more than 1000 nM.
The same measure, in the same setting: the result for `CNc1cccc(-c2c[nH]c(=O)c(NC(=O)c3ccc(N4CCCCC4)cc3)c2)n1` [II-47] reads more than 1000 nM; that for `CNc1cc(-c2c[nH]c(=O)c(NC(=O)c3ccc(N4CCCCC4)cc3)c2)ccn1` [II-115], more than 1000 nM.
With `CNc1cncc(-c2c[nH]c(=O)c(NC(=O)c3ccc(N4CCCNCC4)cc3)c2)n1` [II-146], the Ki in experiment [2] is less than 100 nM.
In the case of `CNc1cncc(-c2c[nH]c(=O)c(NC(=O)c3ccc(N4CCC[C@H]4CO)cc3)c2)n1` [II-147], in experiment [2], the Ki was less than 100 nM.
On the same count and under the same terms, the figure for `O=C(Nc1cc(-c2cccc(NC3(CO)CCCC3)n2)c[nH]c1=O)c1ccc(N2CCCCC2)cc1` [II-150] is 100 to 1000 nM; for `CC[C@@H](CO)Nc1cccc(-c2c[nH]c(=O)c(NC(=O)c3ccc(N4CCCCC4)cc3)c2)n1` [II-151] it is 100 to 1000 nM; for `CCC(C)[C@@H](CO)Nc1cccc(-c2c[nH]c(=O)c(NC(=O)c3ccc(N4CCCCC4)cc3)c2)n1` (some centres unmarked) [II-152] it is 100 to 1000 nM.
Same read-out and setting: the figure for `CNc1cncc(-c2c[nH]c(=O)c(NC(=O)c3ccc(OCC4CCNCC4)cc3)c2)n1` [II-153] is less than 100 nM; for `N#Cc1cncc(-c2c[nH]c(=O)c(NC(=O)c3ccc(N4CCC[C@H]4CN4CCCC4)cc3)c2)c1` [II-154] it is 100 to 1000 nM.
As for `CNc1cncc(-c2c[nH]c(=O)c(NC(=O)c3ccc(N4CCN(C)CC4)cc3)c2)n1` [II-155], in experiment [2], the Ki was less than 100 nM.
On to `CNc1cncc(-c2c[nH]c(=O)c(NC(=O)c3ccc(N4CCC(CCO)CC4)cc3)c2)n1` [II-156], for which, in experiment [2], the Ki was less than 100 nM.
The same measure, in the same setting: the figure for `CNc1cccc(-c2c[nH]c(=O)c(NC(=O)c3ccc(OCC4CCNCC4)cc3)c2)n1` [II-157] is less than 100 nM.
Consider `CNc1cncc(-c2c[nH]c(=O)c(NC(=O)c3ccc(OCCN4CCNCC4)cc3)c2)n1` [II-158], for which, in experiment [2], the Ki is less than 100 nM.
For the compound `CNc1cncc(-c2c[nH]c(=O)c(NC(=O)c3ccc(N4CCCCC4)cc3)c2)c1` [II-159], the Ki in experiment [1] was more than 1000 nM.
Turning to `N#Cc1ccnc(-c2c[nH]c(=O)c(NC(=O)c3ccc(N4CCNCC4)cc3)c2)c1` [II-161], the Ki in experiment [2] fell in the range of 100 to 1000 nM.
Turning to `CNc1cncc(-c2c[nH]c(=O)c(NC(=O)c3ccc(NCCN4CCCC4)cc3)c2)n1` [II-162], the Ki in experiment [2] was less than 100 nM.
Still for that read-out and setting: the result for `CNc1cncc(-c2c[nH]c(=O)c(NC(=O)c3ccc(N(C)CCc4cnc[nH]4)cc3)c2)n1` [II-165] reads less than 100 nM; that for `CNc1cncc(-c2c[nH]c(=O)c(NC(=O)c3ccc(N(C)CCCN(C)C)cc3)c2)n1` [II-167], less than 100 nM.
On the same count and under the same terms, the result for `CNc1cc(-c2c[nH]c(=O)c(NC(=O)c3ccc(N4CCNCC4)cc3)c2)ccn1` [II-169] reads less than 100 nM.
Take `CNc1cc(-c2c[nH]c(=O)c(NC(=O)c3ccc(OCC4CCNCC4)cc3)c2)ncn1` [II-170]: in experiment [2], the Ki is less than 100 nM.
Still for that read-out and setting: the figure for `CNc1cc(-c2c[nH]c(=O)c(NC(=O)c3ccc(N4CCC[C@H]4CN4CCCC4)cc3)c2)ccn1` [II-172] is less than 100 nM; for `O=C(Nc1cc(-c2cccc(NC(CO)CO)n2)c[nH]c1=O)c1ccc(N2CCCCC2)cc1` [II-174] it is 100 to 1000 nM; for `CCNc1cncc(-c2c[nH]c(=O)c(NC(=O)c3ccc(N4CCC[C@H]4CN4CCCC4)cc3)c2)n1` [II-175] it is 100 to 1000 nM.
Turning to `O=C(Nc1cc(-c2cncc(NC3CC3)n2)c[nH]c1=O)c1ccc(N2CCC[C@H]2CN2CCCC2)cc1` [II-176], the Ki in experiment [2] lay within 100 to 1000 nM.
As to `CNc1cncc(-c2c[nH]c(=O)c(NC(=O)c3ccc(OCCCN4CCCCC4)cc3)c2)n1` [II-177], the Ki in experiment [2] is less than 100 nM.
Take `CNc1cncc(-c2c[nH]c(=O)c(NC(=O)c3ccc(OC4CCNCC4)cc3)c2)n1` [II-181]: the Ki in experiment [2] is less than 100 nM.
`CNc1cncc(-c2c[nH]c(=O)c(NC(=O)c3ccc(OCCCN4CCOCC4)cc3)c2)n1` [II-182]: in experiment [2], the Ki was less than 100 nM.
Consider `CCc1ccc(NC(=O)c2cc(-c3ccncc3)c[nH]c2=O)cc1` [III-7], for which, in experiment [2], the inhibition constant (Ki) lay in the range of 100 to 1000 nM.
Same read-out and setting: the figure for `O=C(Nc1ccc(Br)cc1)c1cc(-c2ccncc2)c[nH]c1=O` [III-8] is 100 to 1000 nM; for `COc1ccc(NC(=O)c2cc(-c3ccncc3)c[nH]c2=O)cc1` [III-11] it is 100 to 1000 nM.
Take `COc1ccc(NC(=O)c2cc(-c3ccncc3)c[nH]c2=O)cc1OC` [III-16]: the Ki in experiment [2] lay within 100 to 1000 nM.
`O=C(Nc1ccc(N2CCOCC2)cc1)c1cc(-c2ccncc2)c[nH]c1=O` [III-42]: the Ki in experiment [2] was less than 100 nM.
On the same count and under the same terms, the result for `O=C(Nc1ccc(C2CCCCC2)cc1)c1cc(-c2ccncc2)c[nH]c1=O` [III-43] reads 100 to 1000 nM; that for `O=C(Nc1ccc(N2CCCCC2)cc1)c1cc(-c2ccncc2)c[nH]c1=O` [III-44], less than 100 nM; that for `CCOc1ccc(NC(=O)c2cc(-c3ccncc3)c[nH]c2=O)cc1` [III-45], 100 to 1000 nM.
Turning to `CN1CCN(c2ccc(NC(=O)c3cc(-c4ccncc4)c[nH]c3=O)cc2)CC1` [III-46], the Ki in experiment [2] was less than 100 nM.
For `CCN1CCN(c2ccc(NC(=O)c3cc(-c4ccncc4)c[nH]c3=O)cc2)CC1` [III-47], the Ki in experiment [2] was less than 100 nM.
`O=C(Nc1ccc(N2CCC(O)CC2)cc1)c1cc(-c2ccncc2)c[nH]c1=O` [III-52]: the Ki in experiment [2] was less than 100 nM.
Same read-out and setting: the figure for `O=C(Nc1ccc(N2CCNCC2)cc1)c1cc(-c2ccncc2)c[nH]c1=O` [III-54] is less than 100 nM.
